We go through 14 compounds from patent US20250011351A1, “[…] O-ACETYLPSILOCIN, SALTS AND SOLID STATE FORMS THEREOF” (Terran Biosciences Inc., priority 2021, published 2025).

Series [1] in a line: Dynamic vapor sorption (DVS) analysis with XRPD of the post-DVS specimen. Format: physicochemical. Conditions: for hygroscopicity (in words): DVS at 25° C., RH range given with the value; for hydrate formation: hysteresis of the DVS curve; for solid form of the post-DVS specimen: XRPD after the DVS experiment (5 to 95% RH and back); for overall water uptake: range between 5-95% RH. The method, then:
(§1) DVS analysis was carried out using a TA Instruments Q5000 Dynamic Vapor Sorption analyzer. The instrument was calibrated with standard weights and a sodium bromide standard for humidity. Approximately 10-25 mg of sample was loaded into a metal-coated quartz pan for analysis. The sample was analyzed at 25° C. with a maximum equilibration time of one hour in 10% relative humidity (RH) steps from 5 to 95% RH (adsorption cycle) and from 95 to 5% RH (desorption cycle). The movement from one step to the next occurred either after satisfying the equilibrium criterion of 0.01% weight change or, if the equilibrium criterion was not met, after one hour. The percent weight change values were calculated using Microsoft Excel®.
as §1, with “Dynamic Vapor Sorption (DVS)” for “DVS”, “is” for “was”, “is” for “were”, “Excel.” for “Excel®.”

Series [2] is described as follows: Estimated solubility by adding solvent in aliquots to weighed solid, dissolution judged by visual inspection. Conditions: for Estimated Solubilities / Solubility: room temperature.
For the next series, the target named is T1, 5-HT2A receptors (Mus musculus, UniProt P35363).
T1 construct: from tissue; host or cells: whole living C57BL/6J mice (in vivo behavioural assay)
T1 sequence (P35363 whole entry): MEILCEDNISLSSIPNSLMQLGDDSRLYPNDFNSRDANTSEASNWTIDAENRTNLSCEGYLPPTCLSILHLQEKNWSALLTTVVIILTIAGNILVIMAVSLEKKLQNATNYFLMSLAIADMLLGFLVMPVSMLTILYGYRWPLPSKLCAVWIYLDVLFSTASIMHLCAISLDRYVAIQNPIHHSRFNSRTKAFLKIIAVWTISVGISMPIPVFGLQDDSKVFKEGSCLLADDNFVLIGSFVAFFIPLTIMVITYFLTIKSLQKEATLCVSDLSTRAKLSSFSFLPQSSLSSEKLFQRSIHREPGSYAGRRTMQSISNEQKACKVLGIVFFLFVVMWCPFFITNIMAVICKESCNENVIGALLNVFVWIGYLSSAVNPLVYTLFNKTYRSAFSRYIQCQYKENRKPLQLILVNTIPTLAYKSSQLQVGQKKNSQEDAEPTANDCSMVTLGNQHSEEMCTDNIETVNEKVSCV
In words: Psilocybin-induced head-twitch response in mice, antagonist given i.v. 7 min after psilocybin. Format: in vivo, C57BL/6J mice. Conditions: for effect on psilocybin-induced head-twitch response: cumulative head twitches until 40 min, groups of 3 mice; for effect on psilocybin-induced head twitch, summary of Examples 13-21: antagonist administered after psilocybin, compared to vehicle-treated mice, dose not restated; for Result (suppression of psilocybin-induced head twitch): 5HT2A antagonist i.v. at T=7 min.
Excerpt: The head-shake response is elicited by a wide variety of known hallucinogens such as LSD, psilocybin, psilocin, N,N-dimethyltryptamine (DMT), and mescaline as well as serotonin-releasing agents and direct 5-HT2 agonists. […] Later studies have confirmed 5-HT2A receptors are the primary, direct mediators of the response and that the headshake response in rats is essentially the same as head-twitches in mice, at least in regards to similarity in appearance and 5-HT2A receptor dependence.
Male C57BL/6J mice (approximately 25 g) were group housed. Animals were maintained under a 12 h light/dark cycle, at 23° C. with humidity controlled.
(§2) At T=−60 min, C57BL/6J mice were individually housed into transparent observation cages with bedding removed and left to habituate. At T=−3 min, mice were placed into heated cages at 40° C. At T=0 h, groups of 3 mice were dosed intraperitoneally with psilocybin (2 mg/kg). Following dosing, mice were replaced into the heated cages and head-twitch responses continuously scored for 7 min. After 7 min, mice were intravenously dosed via the lateral tail vein with either vehicle 1 (saline) or volinanserin 1 mg/kg in 5 mL/kg dosing volumes. Mice were replaced into the observation cages and head twitch behavior were monitored until 40 min after agonist dosing. Cumulative head-twitches were measured every 2 minutes until 40 minutes after agonist dosing.
as §2, with “min. […]” for “min. After 7 min, mice were intravenously dosed via the lateral tail vein with either vehicle 1 (saline) or volinanserin 1 mg/kg in 5 mL/kg dosing volumes.”, “behavior was” for “behavior were”, “Cumulative head-twitch behavior was” for “Cumulative head-twitches were”
as §2, with “min. […]” for “min. After 7 min, mice were intravenously dosed via the lateral tail vein with either vehicle 1 (saline) or volinanserin 1 mg/kg in 5 mL/kg dosing volumes.”, “behavior was” for “behavior were”, “Cumulative head-twitch behavior was” for “Cumulative head-twitches were”
as §2, with “min. […]” for “min. After 7 min, mice were intravenously dosed via the lateral tail vein with either vehicle 1 (saline) or volinanserin 1 mg/kg in 5 mL/kg dosing volumes.”, “behavior was” for “behavior were”, “Cumulative head-twitch behavior was” for “Cumulative head-twitches were”
as §2, with “min. […]” for “min. After 7 min, mice were intravenously dosed via the lateral tail vein with either vehicle 1 (saline) or volinanserin 1 mg/kg in 5 mL/kg dosing volumes.”, “behavior was” for “behavior were”, “Cumulative head-twitch behavior was” for “Cumulative head-twitches were”
At T=−60 min, C57BL/6J mice were individually housed into transparent observation cages with bedding removed and left to habituate.

The mark [3] stands for this setting: antagonist 1 mg/kg i.v. 7 min after psilocybin 2 mg/kg i.p.
[4] abbreviates: antagonist 4 mg/kg i.v. 7 min after psilocybin 2 mg/kg i.p.
The mark [5] stands for this setting: psilocybin 2 mg/kg i.p., head twitches scored to 40 min.

“Also recorded” adds a separate entry of the source.

For the compound `CC(=O)Oc1cccc2[nH]cc(CCN(C)C)c12.O=C(O)C[C@H](O)C(=O)O` [L-malate salt, Form B, O-Acetyl Psilocin Malate], in series [1], the “hygroscopicity (in words)” value is listed as “non-hygroscopic in the range between 5-85% RH; also recorded: hygroscopic above 850% RH” and the “solid form of the post-DVS specimen” value is recorded as “consistent with Form B”. In series [1] (DVS, above 85% RH), the Water uptake result is given as “approx. 4.500%” and the hydrate formation entry is given as “no hydrate formation occurred”. Also, the hydrate formation result in series [1] (DVS, above 85% RH, listed as Malate B) is listed as “possible hydrate formation”.

Regarding `CC(=O)Oc1cccc2[nH]cc(CCN(C)C)c12.O=C(O)C(O)C(O)C(=O)O` [L-tartrate salt, Form A, O-Acetyl Psilocin Tartrate], in series [1], the “hygroscopicity (in words)” value is listed as “non-hygroscopic in the range from 5-85% RH; also recorded: hygroscopic above 85% RH”; the “solid form of the post-DVS specimen” value is “consistent with Form A by XRPD analysis and exhibited additional diffraction peaks”. For the same compound, in series [1] (DVS, above 85% RH), the Water uptake result is listed as “approx. 6%” and the hydrate formation entry is on record as “consistent with hydrate formation”. In addition, the hydrate formation entry in series [1] (DVS, above 85% RH, listed as Tartrate A) was “possible hydrate formation”.

In the case of `CC(=O)Oc1cccc2[nH]cc(CCN(C)C)c12.O=C(O)C(O)C(O)C(=O)O` [L-tartrate, Form A], in series [1] (DVS), the “RH above which hygroscopic (DVS)” value is greater than 85 % RH and the “RH range in which non-hygroscopic (DVS)” value is 5-85 % RH. In series [1] (DVS, high RH), the “hydrate formation upon DVS” value is recorded as “resulting in hydrate”. In addition, the “water uptake, DVS” value in series [1] (above 85% RH) is given as roughly 6%.

In the case of `CC(=O)Oc1cccc2[nH]cc(CCN(C)C)c12.O=C(O)CC(O)C(=O)O` [Malate Form B], the Water uptake is given as 0.8%, 5-85% RH; in series [1] (5-85% RH) and 4.5% above 85% in series [1] (above 85% RH). In addition, the “Water uptake (25-65% RH) %” value in series [1] was roughly 0.3%.

For the compound `CC(=O)Oc1cccc2[nH]cc(CCN(C)C)c12` [O-Acetyl Psilocin Freebase, O-Acetyl Psilocin], the “Estimated Solubilities” value is reported as greater than 62 in series [2] (1,4-dioxane); greater than 50 in series [2] (2-methyltetrahydrofuran 2-Me(THF)); greater than 32 in series [2] (2-propanol (2-PrOH)); greater than 51 in series [2] (Methyl ethyl ketone (MEK)); greater than 23 in series [2] (Methyl tert-butyl ether (MTBE)); greater than 59 in series [2] (acetone). Besides, the “Estimated Solubilities” value in series [2] (acetonitrile (ACN)) is greater than 67; in series [2] (ethanol (EtOH)), greater than 62; in series [2] (hexanes) it was less than 1; in series [2] (methanol (MeOH)), greater than 62; in series [2] (toluene) it was greater than 59; in series [2] (water) it was less than 1.

For `CC(=O)Oc1cccc2[nH]cc(CCN(C)C)c12.O=C(O)/C=C/C(=O)O` [O-acetylpsilocin fumarate Form A, O-acetylpsilocin fumarate], the Solubility is less than 1000 µg/mL in series [2] (1,4-dioxane); 1000 µg/mL in series [2] (2-propanol (2-PrOH)); greater than 33000 µg/mL in series [2] (50:50 MeOH:water); greater than 55000 µg/mL in series [2] (50:50 THF:water); greater than 75000 µg/mL in series [2] (70:30 ACN:water); greater than 51000 µg/mL in series [2] (70:30 acetone:water). Further, the Solubility is 3000 µg/mL in series [2] (95:5 1,4-dioxane:water); 12000 µg/mL in series [2] (95:5 ACN:water); 9000 µg/mL in series [2] (95:5 EtOH:water); 4000 µg/mL in series [2] (95:5 IPA:water); greater than 26000 µg/mL in series [2] (95:5 MeOH:water); greater than 17000 µg/mL in series [2] (95:5 THF:water). Besides, the Solubility was 10000 µg/mL in series [2] (95:5 acetone:water); less than 1000 µg/mL in series [2] (acetone); less than 1000 µg/mL in series [2] (acetonitrile (ACN)); less than 1000 µg/mL in series [2] (dichloromethane (DCM)); 2000 µg/mL in series [2] (ethanol (EtOH)); less than 1000 µg/mL in series [2] (ethyl acetate (EtOAc)). Besides, the Solubility in series [2] (hexanes) was less than 1000 µg/mL; in series [2] (methanol (MeOH)), 2000 µg/mL; in series [2] (tetrahydrofuran (THF)), 1000 µg/mL; in series [2] (toluene), less than 1000 µg/mL; in series [2] (water), 11000 µg/mL. Moreover, the “hygroscopicity (in words)” value in series [1] is listed as “non-hygroscopic”. For the same compound, the overall water uptake entry in series [1] (DVS) is reported as “approx. 0.1%”.

With `CC(=O)Oc1cccc2[nH]cc(CCN(C)C)c12.O=C(O)C(O)C(O)C(=O)O` [Tartrate Form A], the “Water uptake (25-65% RH) %” value in series [1] is given as 0.1%. For the same compound, in series [1] (85-95% RH), the Water uptake is listed as 5-6% 85-95% RH. In series [1] (listed as 'Other forms'), the “RH at which likely hydrate formation is shown” value is listed as “at 95% RH”.

On to `O=c1[nH]c2ccccc2n1CCN1CCN(c2cccc(C(F)(F)F)c2)CC1` [flibanserin], for which the “effect on psilocybin-induced head-twitch response” value on 5-HT2A receptors (setting [3]) and at 5-HT2A receptors (setting [4]) was “partially suppressed” each time. Further, the “effect on psilocybin-induced head twitch, summary of Examples 13-21” value at 5-HT2A receptors is recorded as “partial suppression”. Moreover, the “Result (suppression of psilocybin-induced head twitch)” value at 5-HT2A receptors (setting [5]) is reported as “Partial suppression of head twitch”.

On to `O=C(c1ccc(F)cc1)C1CCN(CCn2c(=O)[nH]c3ccccc3c2=O)CC1` [ketanserin], for which, on 5-HT2A receptors (antagonist 2 mg/kg i.v. 7 min after psilocybin 2 mg/kg i.p.), the “effect on psilocybin-induced head-twitch response” value was “completely suppressed”.

As for `CC(=O)Oc1cccc2[nH]cc(CCN(C)C)c12.O=C(O)/C=C\C(=O)O` [maleate salt, Form A, O-acetyl psilocin maleate], in series [1], the “hygroscopicity (in words)” value is “non-hygroscopic” and the “solid form of the post-DVS specimen” value is listed as “consistent with Form A”. Moreover, the “hygroscopicity (in words)” value in series [1] (listed as maleate salt) was “minimal water sorption over the RH range”. Besides, in series [1] (DVS), the overall water uptake result is reported as “approx. 0.8%”.

Take `CC(=O)Oc1cccc2[nH]cc(CCN(C)C)c12.CS(=O)(=O)O` [mesylate salt, Form A, O-Acetyl Psilocin Mesylate]: in series [1], the “hygroscopicity (in words)” value was “non-hygroscopic in the range from 5-55% RH; also recorded: highly hygroscopic material above 55% RH” and the “solid form of the post-DVS specimen” value is on record as “a liquid”. Also, the Water uptake in series [1] (DVS, above 55% RH) stood at 40%.

`COc1ccc(NC(=O)Nc2ccc(F)cc2F)cc1-c1c(Br)cnn1C` [nelotanserin]: the “effect on psilocybin-induced head-twitch response” value on 5-HT2A receptors (setting [3]) is given as “partially suppressed”; at 5-HT2A receptors (setting [4]) it was “completely suppressed; also recorded: completed suppressed”. In addition, the “effect on psilocybin-induced head twitch, summary of Examples 13-21” value at 5-HT2A receptors was “partial suppression”. Besides, the “Result (suppression of psilocybin-induced head twitch)” value at 5-HT2A receptors (setting [5]) is recorded as “Partial suppression of head twitch,”. Moreover, at 5-HT2A receptors (psilocybin 2 mg/kg i.p., antagonist at high dose (4 mg/kg) i.v. at T=7 min, head twitches scored to 40 min), the “Result (suppression of psilocybin-induced head twitch) at high dose” value is reported as “full suppression at high dose”.

With `CN(C)CCc1c[nH]c2cccc(OP(=O)(O)O)c12` [psilocybin], in series [1], the “hygroscopicity (in words)” value was “hygroscopic between 75-95% RH; also recorded: Hygroscopic above 75% RH:” and the “solid form of the post-DVS specimen” value was “converted to a hydrate Form B; also recorded: a hydrated form of psilocybin resulted from water sorption between 75-95% RH; also recorded: Crystalline Form B (hydrate)”.

Turning to Maleate, the “Water solubility” value in series [2] (water) was greater than 50000 µg/mL. Moreover, in series [1] (5-95% RH), the Water uptake is ~0.8, 5-95%. The “Water uptake (25-65% RH) %” value in series [1] is given as roughly 0.3%.

By Solubility is commonly meant the concentration that dissolves in the medium under given conditions.
